From patent US11001591B2, “TRAF 6 inhibitors” (HELMHOLTZ ZENTRUM MUENCHEN—DEUTSCHES FORSCHUNGSZENTRUM FÜR …, priority 2016, dated 2021) come the findings set out here.

Where only a bound is given, the exact number is not on record here.

The target of one test is T1, TRAF6-UBC13 interaction (Homo sapiens, UniProt Q9Y4K3).
T1 construct: RING-Zincfinger1 (RZ1) domain (residues 50-159) of TRAF6 wildtype; made in house; host or cells: E. coli BL21 codon plus RIPL
T1 sequence (Q9Y4K3 50-159): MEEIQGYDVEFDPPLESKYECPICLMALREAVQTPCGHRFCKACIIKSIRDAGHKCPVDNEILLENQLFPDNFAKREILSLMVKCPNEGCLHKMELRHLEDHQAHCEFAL
Put plainly: ALPHAScreen TRAF6WTStrepII-Ubc13FH interaction assay. Type of test: binding. Conditions: inhibition of TRAF6-UBC13 interaction. An excerpt: In order to identify small molecules that specifically target the RZ1 domain of TRAF6 and thereby prevent its binding to Ubc13, the ALPHAScreen technology (PerkinElmer) was chosen to detect TRAF6WTStrepII-Ubc13FH interaction in High-Throughput-Screenings as well as Structure Activity Relationship (SAR) analysis.
For performance of an automated ALPHAScreen assay, all following components were pre-diluted in ALPHAScreen buffer (1×PBS, 0.5% BSA, 0.01% Tween-20). First, the TRAF6 protein (end concentration 100 nM, 30 μL volume) was added to 384-well-opti-plates involving the MultiFlo dispensing system (BioTek) followed by transfer of the compounds via the Sciclone G3 transfer station (PerkinElmer). After addition of Ubc13FH (end concentration 75 nM, 10 μL volume) with the MultiFlo system and incubation for one hour at room temperature, both beads (Strep-Tactin Alpha Donor beads and Nickel-Chelate acceptor beads; end concentrations 4 μg each, 10 μL volume each) were mixed and added using the MultiFlo system in subdued light. Read-out of the plates occurred after another hour of incubation at room temperature. Statistical parameters including the coefficient of variation, Z′ factor and signal window were calculated to determine the quality of the HTS campaign. To evaluate the efficacy of the compounds, ALPHAScreen units of compound-treated samples were referred to DMSO control treated samples. Thereby, the TRAF6D57K mutant served as the control for minimum signal and was included on every plate of the screening. Compounds that inhibited TRAF6WTStrepII-Ubc13FH by more than 25% were considered as actives. After elimination of ALPHAScreen frequent hitter compounds and His-tag frequent hitters (Schorpp, K., I. Rothenaigner, E. Salmina, et al., Identification of Small-Molecule Frequent Hitters from AlphaScreen High-Throughput Screens. J Biomol Screen, 2014. 19(5): p. 715-26), 178 compounds were defined as primary hits and were subsequently tested in five-point serial dilution assays (2.5-40 μM) in TRAF6WTStrepII-Ubc13FH ALPHAScreen experiments. Only compounds with dose-dependent effects on TRAF6WTStrepII-Ubc13FH (n=27) were taken for further research. For analog testing, all compounds were analyzed in ten-point titration (0.2-100 μM) in TRAF6WTStrepII-Ubc13FH ALPHAScreen experiments. In parallel, the compounds were tested in the ALPHAScreen TruHits Kit (PerkinElmer) to rule out unspecific interference with the ALPHAScreen technology.
A general note: Bead proximity is the source of the signal in Alpha formats.
On to `Cc1nn(-c2ccc3nnc(C)n3n2)c(C)c1CCC(=O)N1CCN(c2ccccc2)CC1` [Compound 1, 3-(3,5-dimethyl-1-(3-methyl-[1,2,4]triazolo[4,3-b]pyridazin-6-yl)-1H-pyrazol-4-yl)-1-(4-phenylpiperazin-1-yl)propan-1-one], for which the IC50 (in general, the concentration needed to halve the response being measured) is no more than 3 µM. The same measure, in the same setting: the value for `COc1cccc(N2CCN(C(=O)CCc3c(C)nn(-c4ccc5nncn5n4)c3C)CC2)c1` [Compound 8, 3-(1-([1,2,4]triazolo[4,3-b]pyridazin-6-yl)-3,5-dimethyl-1H-pyrazol-4-yl)-1-(4-(3-methoxyphenyl)piperazin-1-yl)propan-1-one] was no more than 10 µM. On to `Cc1nn(-c2ccc3nnc(C)n3n2)c(C)c1CCC(=O)NCc1ccc(Cl)cc1` [Compound 18, N-(4-chlorobenzyl)-3-(3,5-dimethyl-1-(3-methyl-[1,2,4]triazolo[4,3-b]pyridazin-6-yl)-1H-pyrazol-4-yl)propanamide], for which the 50% inhibitory concentration (IC50) is no more than 30 µM. On the same count and under the same terms, the value for `Cc1nn(-c2ccc3nncn3n2)c(C)c1CCC(=O)N1CCN(c2ccccc2)CC1` [Compound 10, 3-(1-([1,2,4]triazolo[4,3-b]pyridazin-6-yl)-3,5-dimethyl-1H-pyrazol-4-yl)-1-(4-phenylpiperazin-1-yl)propan-1-one] was no more than 10 µM; that for `Cc1nn(-c2ccc3nnc(C)n3n2)c(C)c1CCC(=O)N1CCN(c2ccc(F)cc2)CC1` [Compound 4, 3-(3,5-dimethyl-1-(3-methyl-[1,2,4]triazolo[4,3-b]pyridazin-6-yl)-1H-pyrazol-4-yl)-1-(4-(4-fluorophenyl)piperazin-1-yl)propan-1-one] was no more than 3 µM. As for `Cc1nn(-c2ccc3nncn3n2)c(C)c1CCC(=O)N1CCN(c2ccccn2)CC1` [Compound 12, 3-(1-([1,2,4]triazolo[4,3-b]pyridazin-6-yl)-3,5-dimethyl-1H-pyrazol-4-yl)-1-(4-(pyridin-2-yl)piperazin-1-yl)propan-1-one], the IC50 is no more than 10 µM. Still for that read-out and setting: the value for `Cc1nn(-c2ccc3nnc(C)n3n2)c(C)c1CCC(=O)NCCCc1ccccc1` [Compound 15, 3-(3,5-dimethyl-1-(3-methyl-[1,2,4]triazolo[4,3-b]pyridazin-6-yl)-1H-pyrazol-4-yl)-N-(3-phenylpropyl)propanamide] was no more than 30 µM; that for `Cc1nn(-c2ccc3nncn3n2)c(C)c1CCC(=O)N1CCN(c2ccc(F)cc2)CC1` [Compound 5, 3-(1-([1,2,4]triazolo[4,3-b]pyridazin-6-yl)-3,5-dimethyl-1H-pyrazol-4-yl)-1-(4-(4-fluorophenyl)piperazin-1-yl)propan-1-one] was no more than 10 µM.

With `COc1ccc(N2CCN(C(=O)CCc3c(C)nn(-c4ccc5nncn5n4)c3C)CC2)cc1` [Compound 9, 3-(1-([1,2,4]triazolo[4,3-b]pyridazin-6-yl)-3,5-dimethyl-1H-pyrazol-4-yl)-1-(4-(4-methoxyphenyl)piperazin-1-yl)propan-1-one], the 50% inhibitory concentration (IC50) was no more than 10 µM.

Staying with this test, now noted: inhibition of TRAF6-UBC13 interaction; read-out: IC50 Alphascreen.
As for `Cc1nn(-c2ccc3nnc(C)n3n2)c(C)c1CCC(=O)NCc1ccccc1F` [Compound 26, 3-(3,5-dimethyl-1-(3-methyl-[1,2,4]triazolo[4,3-b]pyridazin-6-yl)-1H-pyrazol-4-yl)-N-(2-fluorobenzyl)propanamide], the inhibition at 100 µM is no less than 30%.

`Cc1nn(-c2ccc3nnc(C)n3n2)c(C)c1CCC(=O)NCCSCc1ccco1` [Compound 27, 3-(3,5-dimethyl-1-(3-methyl-[1,2,4]triazolo[4,3-b]pyridazin-6-yl)-1H-pyrazol-4-yl)-N-(2-((furan-2-ylmethyl)thio)ethyl)propanamide]: the inhibition at 100 µM is no less than 30%.

As to `CCN1CCN(C(=O)CCc2c(C)nn(-c3ccc4nnc(C)n4n3)c2C)CC1` [Compound 23, 3-(3,5-dimethyl-1-(3-methyl-[1,2,4]triazolo[4,3-b]pyridazin-6-yl)-1H-pyrazol-4-yl)-1-(4-ethylpiperazin-1-yl)propan-1-one], the inhibition at 100 µM was no less than 30%.
